Values quoted from earlier work, collected in article PMC6276840, “Challenges and Opportunities of Nanotechnology as Delivery Platform for Tocotrienols in Cancer Therapy” (Frontiers in Pharmacology, 2018).
One block for each compound: values may come before it.

Legend:
[1] = test system: MDA-MB-231; conditions: MDA-MB-231 cells; ref Alayoubi et al., 2013
[2] = test system: MCF-7; conditions: MCF-7 cells; ref Alayoubi et al., 2013
[3] = set-up: method as in Yap et al., 2003; conditions: rats; ref Yap et al., 2003
[4] = set-up: method as in Lorusso et al., 2007; Rafiyath et al., 2012; Rom et al., 2014; conditions: when delivered in liposomes; ref Lorusso et al., 2007; Rafiyath et al., 2012; Rom et al., 2014

Structure (SMILES): CC(C)=CCC/C(C)=C/CC/C(C)=C/CC[C@]1(C)CCc2cc(O)c(C)c(C)c2O1 [γ-tocotrienol]
absolute oral bioavailability [3]: less than 10%

Structure (SMILES): COc1cccc2c1C(=O)c1c(O)c3c(c(O)c1C2=O)C[C@@](O)(C(=O)CO)C[C@@H]3O[C@H]1C[C@H](N)[C@H](O)[C@H](C)O1 [doxorubicin]
cardiotoxicity [4]: markedly reduced
hematological toxicity and palmar–plantar erythrodysesthesia [4]: increased incidence

Structure (SMILES): CC(C)=CCC/C(C)=C/CC/C(C)=C/CC[C@]1(C)CCc2c(C)c(O)c(C)c(C)c2O1 [α-tocotrienol]
absolute oral bioavailability [3]: less than 30%

Now from value to compound:

IC50 [1]: 8 µM
IC50 [2]: 19 µM
Structure (SMILES): CCC(C)(C)C(=O)O[C@H]1C[C@@H](C)C=C2C=C[C@H](C)[C@H](CC[C@@H]3C[C@@H](O)CC(=O)O3)[C@H]21 [simvastatin]

absolute oral bioavailability [3]: less than 10%
Structure (SMILES): CC(C)=CCC/C(C)=C/CC/C(C)=C/CC[C@]1(C)CCc2cc(O)cc(C)c2O1 [δ-tocotrienol]
